Measured values from publication PMC4596688, “Structural determinants of nuclear export signal orientation in binding to exportin CRM1” (eLife, 2015).
Like-named read-outs stand apart in the source and are kept apart here.

Key:
[1] = tested on: human CRM1; test: In vitro CRM1-NES pull-down binding assay (immobilized GST-NES); settings: immobilized GST-PKI^NES mutants, purified CRM1 and RanGTP; 2.5 μM HsCRM1, 7.5 μM ScRanGTP, 30 min 4°C; Coomassie-stained SDS/PAGE
Description: After affinity purification, ^ScRan was loaded with GTP (incubated with molar excess of ethylenediaminetetraacetic acid (EDTA) for 30 min on ice followed by incubation with excess GTP and MgOAC for 30 min at room temperature) and then purified by ion exchange chromatography (HiTrap SP, GE Healthcare Life Sciences). NESs were cloned into the pGEX-TEV vector ([Chook and Blobel, 1999]), purified, and immobilized on glutathione Sepharose beads (GE Healthcare Life Sciences) in TB buffer described above containing 15% glycerol. 2.5 μM ^HsCRM1 and 7.5 μM ^ScRanGTP were added to ∼10 μg of immobilized GST-NESs in TB buffer in total volumes of 200 μl for 30 min at 4°C. Unbound proteins were washed extensively with TB buffer and bound proteins on the Sepharose beads were separated by sodium dodecyl sulfate polyacrylamide gel electrophoresis (SDS/PAGE) and visualized with Coomassie Blue staining. All binding assays were performed in triplicates. To compare the relative intensities of CRM1 bands to yield an estimate of binding activities of various NES mutants, SDS/PAGE gels were dried and scanned with an Epson V300 scanner and the images analyzed with ImageJ software. CRM1 band intensities were corrected for differences in GST-NESs band intensities and normalized to wild-type control intensity in each set of mutations. Corrected relative CRM1 band intensities were plotted as histograms with standard errors with GraphPad Prism.
To test putative minus NESs identified from the Dbase data set, 5 μM ^HsCRM1 with or without 15 μM ^ScRanGTP were used instead. Putative NESs that show no CRM1 binding were expressed in larger scale and purified by size-exclusion chromatography to assess their aggregation states. They were also subjected to intact mass determination by mass spectroscopy to ensure that the GST-NES proteins were not degraded.

[2] = target: CRM1 (Homo sapiens, UniProt O14980); test: Competition differential bleaching assay monitored by microscale thermophoresis instrument (MBP-NES vs FITC-PKI^NES); assay type: binding; settings: brackets = 68.3% confidence interval
Excerpt: To first investigate whether features of the sequence such as spacings between hydrophobic residues and placement of the ΦXΦ motif are critical in determining directionality of NES binding, we reversed the sequence of the hRio2^NES ([…]) to generate hRio2^NES-R ([…]). We also reversed CPEB4^NES ([…]) to generate CPEB4^NES-R ([…]). Both reversed peptides match the class 1a NES pattern and were predicted to bind CRM1 like the PKI^NES, which is another class 1a NES. Binding affinities of NES peptides to CRM1 were measured in competition differential bleaching experiments using FITC-PKI^NES as a fluorescent probe, MBP-NESs as competitors and monitored with a microscale thermophoresis instrument (Figure 4, Figure 4—figure supplement 1). Wild-type NESs MBP-hRio2^NES and MBP-CPEB4^NES bind CRM1 with KDs of 2200 nM [1600,2900] and 590 nM [400,840], respectively (Figure 4B). The ranges in brackets represent the 68.3% confidence intervals as calculated using F-statistics and error-surface projection method ([Bevington and Robinson, 1992]). […] All of the NES peptides were also cloned into EYFP-NLS-NES fusions and tested for nuclear export activity in HeLa cells.
Differential bleaching was used as a parameter to monitor binding of MBP-NES proteins to CRM1. In short, we observed that the fluorophore reporter attached to PKI^NES (FITC) underwent a reproducible time-dependent bleaching when exposed to excitation light (Figure 4—figure supplement 2). Furthermore, this phenomenon was concentration-dependent, that is, the bleaching was accelerated when the FITC-PKI^NES probe was exposed to increasing concentrations of CRM1. […] The differential bleaching can be counteracted by titrating of mixture of FITC-PKI^NES and CRM1 with a known competitor, MBP-PKI^NES, which competes directly with the fluorescent probe for the NES binding groove in CRM1. A sigmoidal appearance of the binding and competition isotherms is observed when differential bleaching, quantified as the average fluorescence at a time after bleaching normalized by the averaged fluorescence just after the beginning of bleaching, is plotted vs titrant concentration in a semilog graph (see Figure 4).This illustrates that this bleaching behavior can be described as a two-state system where unbound probe and CRM1-bound probe bleach at different but specific rates, and that these quantities report on the populations of bound and unbound FITC-PKI^NES. A detailed description of the data-fitting procedures will be described in manuscript in preparation by C.A.B. For error reporting, we used F-statistics and error-surface projection method to calculate the 68.3% confidence intervals of the fitted data ([Bevington and Robinson, 1992]). While error reporting using the error surface projection method is relatively uncommon, the ranges more accurately represent the true confidence intervals given the observed noise in the performed set of experiments because they explicitly account for the ability of the fitting algorithm to compensate for fitting defects by modifying correlated parameters. Thus, they provide better evaluation of the fitted data than other, more commonly used methods (e.g., error estimations from the parametric variance-covariance matrix).
All proteins used were subjected to an extra gel filtration step and dialysis overnight in TB buffer with 15% glycerol to remove possible aggregation and ensures buffer matching. The FITC-PKI^NES peptide (FITC-[…]) was chemically synthesized by GenScript, NJ and dissolved in the TB buffer with 15% glycerol. For the direct titration, ^HsCRM1 was serially diluted from 40 μM to 1.2 nM and incubated with mixture of 120 μM ^ScRan-GTP and 40 nM FITC-PKI^NES in 1:1 vol to a total volume of 20 μl, and incubated for 1 hr in the dark at room temperature. […]

[3] = competition titration, MBP-NES 100 μM to 3 nM, 40 nM FITC-PKI^NES probe, 300 nM HsCRM1, 120 μM ScRan-GTP, mixed 1:1, TB buffer 15% glycerol, 0.05% Tween-20, 1.5 hr room temperature, triplicate titrations, read-out: KD (dissociation constant of NES binding to CRM1)
[4] = Figure 4—figure supplement 1, shorter hRio2^NES (without C-terminal lysine and glycine) and CPEB4^NES (without C-terminal methionine and arginine) constructs, competition differential bleaching as E1, read-out: KD of shorter NES constructs binding to CRM1

Chain of CRM1 (O14980 whole entry, other chains not shown): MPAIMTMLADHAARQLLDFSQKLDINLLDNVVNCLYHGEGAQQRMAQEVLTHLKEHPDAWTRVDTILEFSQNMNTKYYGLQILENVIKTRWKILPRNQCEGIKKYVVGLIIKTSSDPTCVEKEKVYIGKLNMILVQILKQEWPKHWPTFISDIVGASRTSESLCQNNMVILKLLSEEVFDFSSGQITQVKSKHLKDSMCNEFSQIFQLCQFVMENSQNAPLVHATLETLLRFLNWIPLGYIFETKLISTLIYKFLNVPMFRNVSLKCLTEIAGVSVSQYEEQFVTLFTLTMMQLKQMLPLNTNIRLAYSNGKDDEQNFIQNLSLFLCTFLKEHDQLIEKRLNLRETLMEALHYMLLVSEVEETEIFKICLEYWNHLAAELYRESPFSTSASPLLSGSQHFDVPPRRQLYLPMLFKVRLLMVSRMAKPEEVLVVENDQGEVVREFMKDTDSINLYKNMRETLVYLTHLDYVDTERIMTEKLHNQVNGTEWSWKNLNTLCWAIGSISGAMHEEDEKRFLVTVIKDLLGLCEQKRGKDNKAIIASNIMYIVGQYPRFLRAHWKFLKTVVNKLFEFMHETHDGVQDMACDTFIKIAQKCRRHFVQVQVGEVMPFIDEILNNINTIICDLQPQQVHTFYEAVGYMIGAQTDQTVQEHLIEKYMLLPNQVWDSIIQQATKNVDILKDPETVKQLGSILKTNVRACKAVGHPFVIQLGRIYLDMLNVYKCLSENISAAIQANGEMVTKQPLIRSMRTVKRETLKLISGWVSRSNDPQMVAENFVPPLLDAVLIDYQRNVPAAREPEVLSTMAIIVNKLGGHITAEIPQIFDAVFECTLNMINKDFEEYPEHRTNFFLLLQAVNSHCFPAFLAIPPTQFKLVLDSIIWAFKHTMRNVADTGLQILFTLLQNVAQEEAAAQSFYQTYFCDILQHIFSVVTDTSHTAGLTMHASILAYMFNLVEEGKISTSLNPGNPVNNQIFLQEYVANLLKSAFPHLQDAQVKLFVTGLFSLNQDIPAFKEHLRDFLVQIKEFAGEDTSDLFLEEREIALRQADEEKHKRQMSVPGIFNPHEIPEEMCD

Row | Substance | CRM1 binding in pull-down assay [1] | Kd [2, 3] [nM] | Kd [2, 4] [nM]
1 | FDLNELALKLAGL [PKI^NES-Flip2, PKI^NES-Flip mutant with N-terminal FDL, GST-fusion] | graded increases in CRM1 binding | – | –
2 | GGSYGKIEELAQNFETMEFSR [hRio2^NES-R] | – | 2400 | –
3 | GGSYRMIDILSSELSHMDFTR [CPEB4^NES-R] | – | 780 | –
4 | GGSYRSFDMNELALKLAGLD [PKI^NES-Flip3, PKI^NES-Flip mutant with N-terminal FDM, GST-fusion] | graded increases in CRM1 binding | – | –
5 | GGSY^379RTFDMHSLESSLIDI^393 [CPEB4^NES, nuclear export signal of CPEB4 (residues 379-393), tested as MBP- or GST-fusion] | – | 590 | 1600
6 | GGSY^389RSFEMTEFNQALEEI^403 [hRio2^NES, nuclear export signal of hRio2 (residues 389-403), tested as MBP- or GST-fusion] | – | 2200 | 1400
7 | IDLNELALKLAGL [PKI^NES-Flip1, PKI^NES with inverted LDI at the N-terminus, GST-fusion] | does not interact with CRM1 | – | –
